Reference: ChEMBL document CHEMBL4316630, “Benzimidazole-based DGAT1 inhibitors with a [3.1.0] bicyclohexane carboxylic acid moiety” (Bioorg Med Chem Lett, 2019)

Key:
[1] = Stability in mouse hepatocytes assessed as epimerization incubated for 2 hrs by UPLC/HRMS analysis; format: ADME, cell-based, Hepatocyte
[2] = tested on: Mus musculus; assay: Reduction in lipid excursion in mouse assessed as change in triglyceride level at 10 mg/kg, po measured at 18 hrs post dose by lipid tolerance test; format: functional; design: scale not given: the % may be the effect or the level left
[3] = Stability in human hepatocytes assessed as epimerization incubated for 2 hrs by UPLC/HRMS analysis; format: ADME, cell-based, Hepatocyte
[4] = species on record: Homo sapiens; assay: Selectivity index, ratio of IC50 for human ACAT1 to IC50 for human DGAT1
[5] = Plasma concentration in mouse at 10 mg/kg, po; format: ADME, organism-based; conditions: in vivo
[6] = Stability in rat hepatocytes assessed as epimerization incubated for 2 hrs by UPLC/HRMS analysis; format: ADME, cell-based, Hepatocyte
[7] = Lipophilicity, log D of the compound by HPLC analysis; format: physicochemical
[8] = biological target: T1, Diacylglycerol O-acyltransferase 1 (Mus musculus, UniProt Q9Z2A7); assay: Inhibition of mouse DGAT1
T1 sequence (Q9Z2A7 whole entry): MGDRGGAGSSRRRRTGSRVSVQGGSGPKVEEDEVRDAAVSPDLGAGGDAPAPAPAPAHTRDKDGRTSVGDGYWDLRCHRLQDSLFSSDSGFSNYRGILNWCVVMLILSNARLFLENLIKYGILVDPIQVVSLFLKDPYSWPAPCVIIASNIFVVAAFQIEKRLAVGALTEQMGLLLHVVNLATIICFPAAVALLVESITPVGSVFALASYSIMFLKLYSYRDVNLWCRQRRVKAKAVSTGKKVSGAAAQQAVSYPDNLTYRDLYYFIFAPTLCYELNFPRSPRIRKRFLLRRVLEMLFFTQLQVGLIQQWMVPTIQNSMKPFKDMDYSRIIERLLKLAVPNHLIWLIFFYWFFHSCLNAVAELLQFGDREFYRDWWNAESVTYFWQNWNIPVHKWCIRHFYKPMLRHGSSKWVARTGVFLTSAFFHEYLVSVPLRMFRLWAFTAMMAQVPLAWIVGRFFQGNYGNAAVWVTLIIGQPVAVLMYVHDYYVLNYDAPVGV

[9] = Plasma concentration in mouse at 3 mg/kg, po; format: ADME, organism-based; conditions: in vivo
[10] = biological target: T2, Sterol O-acyltransferase 1 (Homo sapiens, UniProt P35610); assay: Inhibition of human ACAT1
T2 sequence (P35610 whole entry): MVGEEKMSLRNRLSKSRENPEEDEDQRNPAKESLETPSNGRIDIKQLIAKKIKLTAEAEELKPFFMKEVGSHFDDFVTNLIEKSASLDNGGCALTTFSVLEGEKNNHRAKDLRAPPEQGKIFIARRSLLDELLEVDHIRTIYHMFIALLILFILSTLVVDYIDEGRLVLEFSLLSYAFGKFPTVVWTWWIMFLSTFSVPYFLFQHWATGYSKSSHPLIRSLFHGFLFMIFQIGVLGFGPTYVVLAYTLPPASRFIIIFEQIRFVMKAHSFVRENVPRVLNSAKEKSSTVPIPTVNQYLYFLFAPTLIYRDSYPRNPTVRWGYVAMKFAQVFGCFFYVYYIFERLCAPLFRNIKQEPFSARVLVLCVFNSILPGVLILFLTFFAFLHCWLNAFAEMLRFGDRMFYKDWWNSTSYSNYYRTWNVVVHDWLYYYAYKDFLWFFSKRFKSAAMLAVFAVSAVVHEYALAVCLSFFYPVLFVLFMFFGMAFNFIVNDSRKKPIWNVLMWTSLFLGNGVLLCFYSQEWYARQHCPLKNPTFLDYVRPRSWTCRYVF

[11] = tested on: Mus musculus; assay: Reduction in lipid excursion in mouse assessed as change in triglyceride level at 3 mg/kg, po measured at 18 hrs post dose by lipid tolerance test; format: functional; design: scale not given: the % may be the effect or the level left
[12] = biological target: T3, Diacylglycerol O-acyltransferase 1 (Homo sapiens, UniProt O75907); assay: Inhibition of human DGAT1
T3 sequence (O75907 whole entry): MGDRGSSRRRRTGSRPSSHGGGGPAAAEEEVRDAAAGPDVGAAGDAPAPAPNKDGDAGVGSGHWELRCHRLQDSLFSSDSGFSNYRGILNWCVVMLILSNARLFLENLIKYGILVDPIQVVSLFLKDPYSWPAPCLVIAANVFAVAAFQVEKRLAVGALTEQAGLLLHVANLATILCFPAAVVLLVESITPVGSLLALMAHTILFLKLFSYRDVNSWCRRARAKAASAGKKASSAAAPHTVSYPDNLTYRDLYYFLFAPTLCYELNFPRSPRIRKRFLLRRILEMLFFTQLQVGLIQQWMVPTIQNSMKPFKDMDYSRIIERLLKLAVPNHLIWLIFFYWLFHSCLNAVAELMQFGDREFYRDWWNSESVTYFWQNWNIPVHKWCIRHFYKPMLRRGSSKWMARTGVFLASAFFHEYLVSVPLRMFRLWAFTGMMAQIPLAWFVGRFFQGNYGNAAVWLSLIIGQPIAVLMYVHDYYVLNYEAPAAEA

[13] = Drug metabolism in mouse hepatocytes assessed as glucuronide formation incubated for 2 hrs by UPLC/HRMS analysis; format: ADME, cell-based, Hepatocyte
[14] = Plasma concentration in mouse at 10 mg/kg, po after 4 hrs; format: ADME, organism-based
[15] = Drug metabolism in rat hepatocytes assessed as glucuronide formation incubated for 2 hrs by UPLC/HRMS analysis; format: ADME, cell-based, Hepatocyte
[16] = Drug metabolism in human hepatocytes assessed as glucuronide formation incubated for 2 hrs by UPLC/HRMS analysis; format: ADME, cell-based, Hepatocyte
[17] = Drug metabolism in mouse assessed as epimerization by measuring plasma concentration of 1s,4s)-4-(1-(5-(5-(trifluoromethyl)-1H-benzo[d]imidazol-2-yl)pyridin-2-yl)piperidin-4-yloxy)cyclohexanecarboxylic acid at 10 mg/kg, po after 3 hrs; format: ADME, organism-based; conditions: in vivo
[18] = Plasma concentration in mouse at 10 mg/kg, po after 3 hrs; format: ADME, organism-based

Compound	Stability [1]	Activity [2] [%]	Stability [3]	Ratio IC50 [4]	concentration [5] [nM]	Stability [6]	logD [7]	IC50 [8] [nM]	concentration [9] [nM]	IC50 [10] [nM]	Activity [11] [%]	IC50 [12] [nM]	Drug metabolism [13]	concentration at 4 h [14] [nM]	Drug metabolism [15]	Drug metabolism [16]	concentration [17] [nM]	concentration at 3 h [18] [nM]
O=C(O)[C@H]1CC[C@@H](OC2CCN(c3ccc(-c4nc5cc(C(F)(F)F)ccc5[nH]4)cn3)CC2)CC1	Unstable	-75	Unstable	> 4000	26	Unstable	1.64	–	–	–	–	–	–	–	–	–	–	–
O=C(O)[C@H]1[C@@H]2C[C@@H](OC3CCN(c4ccc(-c5nc6cc(C(F)(F)F)ccc6[nH]5)cn4)CC3)C[C@@H]21	–	–	–	> 2600	–	–	1.87	22	25	> 10000	-30	3.8	–	–	–	–	–	–
O=C(O)[C@H]1[C@@H]2C[C@H](OC3CCN(c4ccc(-c5nc6cc(C(F)(F)F)ccc6[nH]5)cn4)CC3)C[C@@H]21	Stable	–	Stable	1950	–	Stable	1.9	4.3	27	3900	-70	–	Metabolite_Detected	151	Metabolite_Detected	Metabolite_Detected	–	–
O=C(O)[C@@H]1[C@@H]2C[C@H](OC3CCN(c4ccc(-c5nc6cc(C(F)(F)F)ccc6[nH]5)cn4)CC3)C[C@@H]21	Stable	–	Stable	> 900	–	Stable	1.88	74	23	> 10000	3	–	Metabolite_Detected	–	Metabolite_Detected	Metabolite_Detected	–	–
O=C(O)[C@@H]1[C@@H]2C[C@@H](OC3CCN(c4ccc(-c5nc6cc(C(F)(F)F)ccc6[nH]5)cn4)CC3)C[C@@H]21	–	–	–	> 1690	–	–	1.73	48	51	> 10000	-30	5.9	–	–	–	–	–	–
O=C(O)[C@H]1CC[C@H](OC2CCN(c3ccc(-c4nc5cc(C(F)(F)F)ccc5[nH]4)cn3)CC2)CC1	Unstable	-89	Unstable	> 2500	17	Unstable	1.68	–	–	–	–	–	–	–	–	–	54	324
